ChEMBL document CHEMBL1134774, “Design, synthesis, and structure-activity relationships of a series of 3-[2-(1-benzylpiperidin-4-yl)ethylamino]pyridazine derivatives as acetylcholinesterase inhibitors” (J Med Chem, 2001)

Assays:
Acetylcholinesterase [1] = biological target: Acetylcholinesterase (Electrophorus electricus, UniProt O42275)
Description: In vitro inhibition of electric eel acetylcholinesterase

Acetylcholinesterase [2] = biological target: Acetylcholinesterase (Homo sapiens, UniProt P22303)
Description: In vitro inhibition of acetylcholinesterase from human erythrocytes

Cholinesterase = Cholinesterase (Homo sapiens, UniProt P06276)
Cholinesterase, sequence (P06276 whole entry): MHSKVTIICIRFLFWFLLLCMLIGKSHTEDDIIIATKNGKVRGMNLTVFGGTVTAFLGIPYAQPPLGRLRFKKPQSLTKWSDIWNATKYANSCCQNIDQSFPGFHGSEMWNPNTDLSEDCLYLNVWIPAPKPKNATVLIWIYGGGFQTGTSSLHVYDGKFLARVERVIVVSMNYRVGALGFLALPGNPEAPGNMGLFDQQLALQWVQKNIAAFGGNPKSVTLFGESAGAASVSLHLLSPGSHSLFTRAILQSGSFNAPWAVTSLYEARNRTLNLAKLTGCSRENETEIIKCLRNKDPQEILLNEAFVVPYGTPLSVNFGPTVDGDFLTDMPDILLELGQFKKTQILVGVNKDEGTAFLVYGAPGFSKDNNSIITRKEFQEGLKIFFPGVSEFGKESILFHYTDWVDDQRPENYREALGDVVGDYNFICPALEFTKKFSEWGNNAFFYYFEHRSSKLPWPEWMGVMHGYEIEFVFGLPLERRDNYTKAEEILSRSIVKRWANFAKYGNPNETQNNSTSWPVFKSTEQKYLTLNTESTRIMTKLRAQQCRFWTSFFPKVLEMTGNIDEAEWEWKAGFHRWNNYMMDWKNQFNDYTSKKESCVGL
Description: Inhibition of butyrylcholinesterase from human serum

[3] = biological target: T1, Choline O-acetyltransferase (Rattus norvegicus) (UniProt P32738); experiment: IC50 (hBuChE/hAChE) ratio of the compound
T1 sequence (whole entry): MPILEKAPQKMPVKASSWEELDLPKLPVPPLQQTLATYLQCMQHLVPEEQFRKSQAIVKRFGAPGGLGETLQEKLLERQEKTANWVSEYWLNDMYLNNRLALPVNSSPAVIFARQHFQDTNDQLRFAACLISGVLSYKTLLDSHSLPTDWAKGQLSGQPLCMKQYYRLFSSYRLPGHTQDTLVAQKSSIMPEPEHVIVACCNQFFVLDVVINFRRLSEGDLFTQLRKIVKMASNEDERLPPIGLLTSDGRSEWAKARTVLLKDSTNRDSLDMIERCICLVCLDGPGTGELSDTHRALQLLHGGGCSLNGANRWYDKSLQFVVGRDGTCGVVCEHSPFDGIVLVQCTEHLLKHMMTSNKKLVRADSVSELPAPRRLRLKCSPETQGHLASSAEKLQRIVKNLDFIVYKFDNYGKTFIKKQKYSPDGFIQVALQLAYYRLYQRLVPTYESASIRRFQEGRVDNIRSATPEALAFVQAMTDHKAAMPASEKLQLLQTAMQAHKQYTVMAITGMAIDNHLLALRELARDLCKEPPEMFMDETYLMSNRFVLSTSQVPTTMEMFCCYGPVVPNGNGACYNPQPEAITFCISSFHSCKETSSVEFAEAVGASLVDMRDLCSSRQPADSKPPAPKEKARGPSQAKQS

Acetylcholinesterase (Electrophorus electricus, UniProt O42275), sequence (O42275 whole entry): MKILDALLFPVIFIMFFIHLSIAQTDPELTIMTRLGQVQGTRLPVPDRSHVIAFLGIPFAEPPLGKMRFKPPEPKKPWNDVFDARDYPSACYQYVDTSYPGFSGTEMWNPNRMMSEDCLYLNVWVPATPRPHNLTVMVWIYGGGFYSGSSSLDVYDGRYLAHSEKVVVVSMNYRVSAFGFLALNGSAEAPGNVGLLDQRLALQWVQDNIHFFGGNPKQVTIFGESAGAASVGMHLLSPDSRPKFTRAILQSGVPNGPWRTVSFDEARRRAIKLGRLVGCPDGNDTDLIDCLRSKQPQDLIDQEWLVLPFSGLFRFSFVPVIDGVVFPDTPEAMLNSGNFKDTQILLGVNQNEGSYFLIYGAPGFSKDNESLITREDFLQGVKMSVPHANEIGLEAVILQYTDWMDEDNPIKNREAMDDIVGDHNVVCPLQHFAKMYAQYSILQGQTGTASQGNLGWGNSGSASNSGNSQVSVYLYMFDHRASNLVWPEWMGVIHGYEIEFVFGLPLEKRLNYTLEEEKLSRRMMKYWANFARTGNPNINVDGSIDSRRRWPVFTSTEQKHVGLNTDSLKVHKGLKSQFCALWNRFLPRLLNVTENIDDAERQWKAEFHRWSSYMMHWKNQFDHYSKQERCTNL
Acetylcholinesterase (Homo sapiens, UniProt P22303), sequence (P22303 whole entry): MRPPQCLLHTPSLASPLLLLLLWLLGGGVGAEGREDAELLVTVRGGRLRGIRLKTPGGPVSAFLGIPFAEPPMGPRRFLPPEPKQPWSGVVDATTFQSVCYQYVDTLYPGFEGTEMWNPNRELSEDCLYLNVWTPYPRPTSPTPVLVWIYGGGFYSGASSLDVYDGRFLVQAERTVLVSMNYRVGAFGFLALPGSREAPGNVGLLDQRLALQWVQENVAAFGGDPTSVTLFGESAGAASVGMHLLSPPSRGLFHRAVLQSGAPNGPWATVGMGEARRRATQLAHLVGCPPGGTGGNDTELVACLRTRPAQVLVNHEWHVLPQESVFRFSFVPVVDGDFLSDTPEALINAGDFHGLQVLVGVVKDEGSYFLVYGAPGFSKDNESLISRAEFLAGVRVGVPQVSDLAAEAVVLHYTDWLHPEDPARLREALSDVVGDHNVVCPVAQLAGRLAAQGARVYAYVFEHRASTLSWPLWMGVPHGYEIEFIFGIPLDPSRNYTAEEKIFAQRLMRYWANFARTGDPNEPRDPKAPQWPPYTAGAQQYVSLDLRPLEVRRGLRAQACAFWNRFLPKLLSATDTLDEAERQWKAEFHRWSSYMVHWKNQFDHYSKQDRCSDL

Fc1ccc(-c2ccc(NCCC3CCN(Cc4ccccc4)CC3)nn2)cc1
IC50 (Acetylcholinesterase [1]): 350 nM

CC(C)c1cc(-c2ccccc2)nnc1NCCC1CCN(Cc2ccccc2)CC1
IC50 (Acetylcholinesterase [1]): 430 nM

O=C(CNc1ccc(-c2ccccc2)nn1)N1CCC(Cc2ccccc2)CC1
IC50 (Acetylcholinesterase [1]): 120000 nM

N#Cc1ccc(-c2ccc(NCCC3CCN(Cc4ccccc4)CC3)nn2)cc1
IC50 (Acetylcholinesterase [1]): 100 nM

CN(C)c1ccc(-c2ccc(NCCC3CCN(Cc4ccccc4)CC3)nn2)cc1
IC50 (Acetylcholinesterase [1]): 210 nM

CCCc1cc(=NCCC2CCN(Cc3ccccc3)CC2)[nH]nc1-c1ccccc1
IC50 (Acetylcholinesterase [1]): 61 nM

c1ccc(CN2CCC(CCNc3ccc(-c4ccc5ccccc5c4)nn3)CC2)cc1
IC50 (Acetylcholinesterase [1]): 56 nM

Clc1ccccc1-c1ccc(NCCC2CCN(Cc3ccccc3)CC2)nn1
IC50 (Acetylcholinesterase [1]): 80 nM

O=C(CNc1ccc(-c2ccccc2)nn1)N1CCN(Cc2ccccc2)CC1
IC50 (Acetylcholinesterase [1]): 15000 nM

c1ccc(CN2CCC(CCNc3ccc(-c4cccnc4)nn3)CC2)cc1
IC50 (Acetylcholinesterase [1]): 57 nM

c1ccc(CN2CCC(CCOc3ccc(-c4ccccc4)nn3)CC2)cc1
IC50 (Acetylcholinesterase [1]): 140000 nM
IC50 (Acetylcholinesterase [2]): 710 nM
IC50 (Cholinesterase): 1600 nM

CCc1ccccc1-c1ccc(NCCC2CCN(Cc3ccccc3)CC2)nn1
IC50 (Acetylcholinesterase [1]): 87 nM

c1ccc(CN2CCC(CCNc3ccc(-c4cccs4)nn3)CC2)cc1
IC50 (Acetylcholinesterase [1]): 97 nM

O=C(CN1CCC(Cc2ccccc2)CC1)Nc1ccc(-c2ccccc2)nn1
IC50 (Acetylcholinesterase [1]): 18000 nM

Cc1cc(=NCCC2CCN(Cc3ccccc3)CC2)[nH]nc1-c1ccccc1
IC50 (Acetylcholinesterase [1]): 21 nM
IC50 ratio [3]: 24
IC50 (Acetylcholinesterase [2]): 39 nM
IC50 (Cholinesterase): 940 nM

CCc1cc(=NCCC2CCN(Cc3ccccc3)CC2)[nH]nc1-c1ccccc1
IC50 (Acetylcholinesterase [1]): 27 nM
IC50 ratio [3]: 14
IC50 (Acetylcholinesterase [2]): 66 nM
IC50 (Cholinesterase): 920 nM

O=C(CN1CCN(Cc2ccccc2)CC1)Nc1ccc(-c2ccccc2)nn1
IC50 (Acetylcholinesterase [1]): 17000 nM

c1ccc(CN2CCC(CCN=c3[nH]nc(-c4ccccc4)c4ccccc34)CC2)cc1
IC50 (Acetylcholinesterase [1]): 440 nM

Cc1cc(C)c(-c2ccc(NCCC3CCN(Cc4ccccc4)CC3)nn2)c(C)c1
IC50 (Acetylcholinesterase [1]): 3000 nM

Clc1ccc(NCCC2CCN(Cc3ccccc3)CC2)nn1
IC50 (Acetylcholinesterase [1]): 73 nM

Cc1cc(-c2ccccc2)nnc1NCCC1CCN(Cc2ccccc2)CC1
IC50 (Acetylcholinesterase [1]): 320 nM

c1ccc(CN2CCC(CCNc3cccnn3)CC2)cc1
IC50 (Acetylcholinesterase [1]): 240 nM

O=C(CC1CCN(Cc2ccccc2)CC1)Nc1ccc(-c2ccccc2)nn1
IC50 (Acetylcholinesterase [1]): 4200 nM

COc1ccc(NCCC2CCN(Cc3ccccc3)CC2)nn1
IC50 (Acetylcholinesterase [1]): 220 nM

CC(=O)c1cccc(-c2ccc(NCCC3CCN(Cc4ccccc4)CC3)nn2)c1
IC50 (Acetylcholinesterase [1]): 54 nM

c1ccc(CN2CCC(CCNc3cc4ccc5ccccc5c4nn3)CC2)cc1
IC50 (Acetylcholinesterase [1]): 22 nM
IC50 (Acetylcholinesterase [2]): 190 nM
IC50 (Cholinesterase): 270 nM

Cc1ccccc1-c1ccc(NCCC2CCN(Cc3ccccc3)CC2)nn1
IC50 (Acetylcholinesterase [1]): 90 nM

c1ccc(CN2CCC(CCNc3cc4c(nn3)-c3ccccc3CC4)CC2)cc1
IC50 (Acetylcholinesterase [1]): 39 nM
IC50 ratio [3]: 1.5
IC50 (Acetylcholinesterase [2]): 190 nM
IC50 (Cholinesterase): 280 nM

CC(=O)Nc1cccc(-c2ccc(NCCC3CCN(Cc4ccccc4)CC3)nn2)c1
IC50 (Acetylcholinesterase [1]): 58 nM

c1ccc(CN2CCC(CCSc3ccc(-c4ccccc4)nn3)CC2)cc1
IC50 (Acetylcholinesterase [1]): 63000 nM
IC50 (Acetylcholinesterase [2]): 470 nM
IC50 (Cholinesterase): 480 nM

c1ccc(CN2CCC(CCNc3ccc(-c4ccccc4)nn3)CC2)cc1
IC50 (Acetylcholinesterase [1]): 120 nM
IC50 ratio [3]: 5

COc1ccccc1-c1ccc(NCCC2CCN(Cc3ccccc3)CC2)nn1
IC50 (Acetylcholinesterase [1]): 110 nM

c1ccc(CN2CCC(CCN=c3cc4c(n[nH]3)-c3ccccc3C4)CC2)cc1
IC50 (Acetylcholinesterase [1]): 10 nM
IC50 ratio [3]: 3.1
IC50 (Acetylcholinesterase [2]): 74 nM
IC50 (Cholinesterase): 230 nM

c1ccc(CN2CCC(CCNc3cc4c(nn3)-c3ccccc3CCC4)CC2)cc1
IC50 (Acetylcholinesterase [1]): 22 nM
IC50 (Acetylcholinesterase [2]): 120 nM
IC50 (Cholinesterase): 510 nM

c1ccc(CC2CCN(CCNc3ccc(-c4ccccc4)nn3)CC2)cc1
IC50 (Acetylcholinesterase [1]): 24000 nM

FC(F)(F)c1cc(-c2ccc(NCCC3CCN(Cc4ccccc4)CC3)nn2)cc(C(F)(F)F)c1
IC50 (Acetylcholinesterase [1]): 56 nM
